# Experimental data taken from US8822467B2 (Ligand Pharmaceuticals Inc., priority 2009, dated 2014).
# Read-outs that look alike come from different tables or passages of the source.
# Biological target: T1, human CRTH2 (Homo sapiens, UniProt Q9Y5Y4)
# T1 construct: expressed in transfected cells
# T1 sequence (Q9Y5Y4 1-395): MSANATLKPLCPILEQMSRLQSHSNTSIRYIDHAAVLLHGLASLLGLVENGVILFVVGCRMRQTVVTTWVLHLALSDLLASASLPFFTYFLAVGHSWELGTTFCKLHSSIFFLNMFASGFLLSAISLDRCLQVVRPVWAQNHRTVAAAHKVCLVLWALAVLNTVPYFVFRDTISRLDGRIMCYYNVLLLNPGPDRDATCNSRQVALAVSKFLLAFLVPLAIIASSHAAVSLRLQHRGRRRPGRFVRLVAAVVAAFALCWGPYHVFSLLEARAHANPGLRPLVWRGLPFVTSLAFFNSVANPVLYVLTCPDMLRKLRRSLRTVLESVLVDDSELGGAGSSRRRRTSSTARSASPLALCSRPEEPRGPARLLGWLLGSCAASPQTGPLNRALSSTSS
# Experiment: [35S]GTPγS binding assay (SPA) on membranes from CHO-K1 cells stably expressing human CRTH2, stimulated with 60 nM DHK-PGD2
# Format: biochemical
# Conditions: read-out: CRTH2 hGTPγS IC50
# In short: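 Read-out is scintillation proximity: bound [35S]GTPγS (500 pM, with 10 μM GDP) was counted 4 h after centrifuging a 2 h ambient-temperature incubation. Reactions held 4 μg human CRTH2 CHO-K1 membrane protein, 60 nM DHK-PGD2 agonist and test compounds at increasing concentrations. Buffer: 20 mM HEPES pH 7.4, 10 mM MgCl2, 300 mM NaCl, 0.2% BSA, 1% DMSO.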
# [1] = membranes of CHO-K1 cells expressing human CRTH2, 60 nM DHK-PGD2, Table 1
SMILES,"IC50 (potency class symbols, Table 2) [nM]",IC50 [1] [nM]
"CN(Cc1ccc(OCC(=O)O)c(-c2ccc3ncn(C)c3c2)c1)S(=O)(=O)c1ccc(F)cc1 [Example 184, 2-(3-methyl-3H-benzo[d]imidazol-5-yl)-4-((4-fluoro-N-methylphenylsulfonamido)methyl)phenoxyacetic acid]",1000 to 10000,
"CN(Cc1ccc(OCC(=O)O)c(-c2cccc3cnccc23)c1)S(=O)(=O)c1ccc(F)cc1 [Example 185, 2-(isoquinolin-5-yl)-4-((4-fluoro-N-methylphenylsulfonamido)methyl)phenoxyacetic acid]",1000 to 10000,
"CN(Cc1ccc(OCC(=O)O)c(-c2cnn(C)c2)c1)S(=O)(=O)c1ccc(F)cc1 [Example 186, 2-(1-methyl-1H-pyrazol-4-yl)-4-((4-fluoro-N-methylphenylsulfonamido)methyl)phenoxyacetic acid]",1000 to 10000,
"CN(Cc1ccc(OCC(=O)O)c(-c2ccc3nonc3c2)c1)S(=O)(=O)c1ccc(F)cc1 [Example 187, 2-(5-benzo[c][1,2,5]oxadiazolyl)-4-((4-fluoro-N-methylphenylsulfonamido)methyl)phenoxyacetic acid]",< 100,19
"CN(Cc1ccc(OCC(=O)O)c(-c2ccc(C#N)s2)c1)S(=O)(=O)c1ccc(F)cc1 [Example 188, 2-(2-cyanothiophen-5-yl)-4-((4-fluoro-N-methylphenylsulfonamido)methyl)phenoxyacetic acid]",< 100,
"COc1ccc(S(=O)(=O)N(C)Cc2ccc(OCC(=O)O)c(-c3cc(F)cc(F)c3)c2)cc1F [Example 189, 2-(3,5-difluorophenyl)-4-((3-fluoro-4-methoxy-N-methylphenylsulfonamido)methyl)phenoxyacetic acid]",< 100,
"CN(Cc1ccc(OCC(=O)O)c(-c2cc(F)cc(C#N)c2)c1)S(=O)(=O)c1cccs1 [Example 190, 2-(3-cyano-5-fluorophenyl)-4-((N-methylthiophene-2-sulfonamido)methyl)phenoxyacetic acid]",< 100,
"CN(Cc1ccc(OCC(=O)O)c(-c2cc(F)cc(C#N)c2)c1)S(=O)(=O)c1ccc(Cl)s1 [Example 191, 2-(3-cyano-5-fluorophenyl)-4-((2-chloro-N-methylthiophene-5-sulfonamido)methyl)phenoxyacetic acid]",< 100,
"CN(Cc1ccc(OCC(=O)O)c(-c2cc(F)cc(C#N)c2)c1)S(=O)(=O)c1cc(Cl)c(Cl)s1 [Example 192, 2-(3-cyano-5-fluorophenyl)-4-((2,3-dichloro-N-methylthiophene-5-sulfonamido)methyl)phenoxyacetic acid]",< 100,0.2
"N#Cc1cc(F)cc(-c2cc(CNS(=O)(=O)c3ccc(F)c(Cl)c3)ccc2OCC(=O)O)c1 [Example 193, 2-(3-cyano-5-fluorophenyl)-4-((3-chloro-4-fluorophenylsulfonamido)methyl)phenoxyacetic acid]",< 100,
"N#Cc1cc(F)cc(-c2cc(CNS(=O)(=O)c3ccc(F)c(F)c3)ccc2OCC(=O)O)c1 [Example 194, 2-(3-cyano-5-fluorophenyl)-4-((3,4-difluorophenylsulfonamido)methyl)phenoxyacetic acid]",< 100,15
"N#Cc1cc(F)cc(-c2cc(CNS(=O)(=O)c3ccc(F)cc3)ccc2OCC(=O)O)c1 [Example 195, 2-(3-cyano-5-fluorophenyl)-4-((4-fluorophenylsulfonamido)methyl)phenoxyacetic acid]",< 100,
"COc1ccc(S(=O)(=O)NCc2ccc(OCC(=O)O)c(-c3cc(F)cc(C#N)c3)c2)cc1F [Example 196, 2-(3-cyano-5-fluorophenyl)-4-((3-fluoro-4-methoxyphenylsulfonamido)methyl)phenoxyacetic acid]",< 100,0.7
"COc1ccc(S(=O)(=O)N(C)Cc2cc(-c3cc(F)cc(C#N)c3)c(OCC(=O)O)cc2F)cc1F [Example 197, 2-(3-cyano-5-fluorophenyl)-(5-fluoro-4-((3-fluoro-4-methoxy-N-methylphenylsulfonamido)methyl)phenoxy)acetic acid]",< 100,0.6
"CN(Cc1ccc(OCC(=O)O)c(-c2cc(Cl)cc(C#N)c2)c1)S(=O)(=O)c1ccc(F)cc1 [Example 207, 2-(3-cyano-5-chloro-phenyl)-4-((4-fluoro-N-methylphenylsulfonamido)methyl)phenoxyacetic acid]",< 100,
"CN(Cc1cc(-c2cc(F)cc(C#N)c2)c(OCC(=O)O)cc1F)S(=O)(=O)c1ccc(F)cc1 [Example 208, 2-(3-cyano-5-fluoro-phenyl)-4-((4-fluoro-N-methylphenylsulfonamido)methyl)-5-fluorophenoxyacetic acid]",< 100,
"CN(Cc1cc(-c2cc(F)cc(C#N)c2)c(OCC(=O)O)cc1F)S(=O)(=O)c1ccc(F)c(Cl)c1 [Example 209, 2-(3-cyano-5-fluoro-phenyl)-4-((3-chloro-4-fluoro-N-methylphenylsulfonamido)methyl)-5-fluorophenoxyacetic acid]",< 100,
"CN(Cc1cc(-c2cc(F)cc(C#N)c2)c(OCC(=O)O)cc1F)S(=O)(=O)c1cccc(Cl)c1 [Example 210, 2-(3-cyano-5-fluoro-phenyl)-4-((3-chloro-N-methylphenylsulfonamido)methyl)-5-fluorophenoxyacetic acid]",< 100,
"CN(Cc1cc(-c2cc(F)cc(C#N)c2)c(OCC(=O)O)cc1F)S(=O)(=O)c1ccc(Cl)c(Cl)c1 [Example 211, 2-(3-cyano-5-fluoro-phenyl)-4-((3,4-dichloro-N-methylphenylsulfonamido)methyl)-5-fluorophenoxyacetic acid]",< 100,
"CN(Cc1ccc(OCC(=O)O)c(-c2ccc3ccncc3c2)c1)S(=O)(=O)c1ccc(F)cc1 [Example 212, 2-(isoquinolin-7-yl)-4-((4-fluoro-N-methylphenylsulfonamido)methyl)phenoxyacetic acid]",100 to 1000,
"CN(Cc1cc(-c2cc(F)cc(C#N)c2)c(OCC(=O)O)cc1Cl)S(=O)(=O)c1ccc(F)cc1 [Example 213, 2-(3-cyano-5-fluoro-phenyl)-4-((4-fluoro-N-methylphenylsulfonamido)methyl)-5-chlorophenoxyacetic acid]",< 100,
